Tests used:
[1] = tested on: bovine microtubule-associated protein (MAP)-rich tubulin; type: biochemical; details: 0.3 uM
Protocol: Tubulin Polymerization Assays. For in vitro tubulin polymerization assays, bovine microtubule-associated protein (MAP)-rich tubulin, PEM buffer [80 mM Na-PIPES (pH 6.9), 1 mM MgCl2, and 1 mM EGTA], and GTP are purchased from Cytoskeleton (Denver, Colo.). MAP-rich tubulin (final concentration 1.5 mg/ml) is dissolved in cold PEM buffer containing 1 mM GTP (GPEM) and centrifuged at 12,000×g for 10 min at 4° C. The tubulin solution (100 μl/well) is added rapidly to wells of a low-volume, 96-well plate already containing duplicate aliquots (10 μl) of test compounds in GPEM. […] Control wells contained the same final concentration of DMSO (0.3%). After initiation of the reaction, absorbance at 340 nm is measured every minute for 60 min at 24° C. using a SpectraMax Plus plate reader (Molecular Devices, Sunnyvale, Calif.).

KB85 = assay: cells; type: cell-based; details: for IC50: 3 days, SRB
Protocol: (§1) Cell Survival Assay: Standard Pharmacological Test Procedure. […] Compounds are incubated with cells for 3 days.

KBV1 = assay: cells; type: cell-based; details: for IC50: 3 days, SRB; for inhibition at 3 µM: KB-V1, 3000 nM
Protocol: as §1

KB cells = assay: cells; type: cell-based; details: 3 days, SRB
Protocol: as §1

SMILES: CN[C@H](C(=O)N[C@H](C(=O)N(C)[C@H](/C=C(\C)C(=O)N1CCN(Cc2ccccc2)CC1)C(C)C)C(C)(C)C)C(C)(C)c1ccccc1 [Example 39, N,β,β-trimethyl-L-phenylalanyl-N^1-[(1S,2E)-4-(4-benzylpiperazin-1-yl)-1-isopropyl-3-methyl-4-oxobut-2-enyl]-N^1,3-dimethyl-L-valinamide]
- Tubulin Polym. % inhibition at 0.3 uM [1]: 29%
- IC50 (KB85; 72 h): 22 nM
- IC50 (KBV1; Homo sapiens, KB-V1, 72 h): 366 nM
- IC50 (KB cells; Homo sapiens, KB, 72 h): 15 nM

SMILES: CN[C@H](C(=O)N[C@H](C(=O)N(C)[C@H](/C=C(\C)C(C)O)C(C)C)C(C)(C)C)C(C)(C)c1ccccc1 (stereo partly drawn) [Example 78, N,β,β-trimethyl-L-phenylalanyl-N-1-[(1S,2E)-4-hydroxy-1-isopropyl-3-methylpent-2-enyl]-N-1,3-dimethyl-L-valinamide]
- Tubulin Polym. % inhibition at 0.3 uM [1]: 75%
- IC50 (KB85): 172 nM
- IC50 (KBV1): 1460 nM
- IC50 (KB cells): 63 nM

SMILES: CN[C@H](C(=O)N[C@H](C(=O)N(C)[C@H](/C=C1/C(=O)NC(=O)N1C)C(C)C)C(C)(C)C)C(C)(C)c1ccccc1 [Example 89, N,β,β-trimethyl-L-phenylalanyl-N^1,3-dimethyl-N^1-{(1S)-2-methyl-1-[(Z)-(3-methyl-2,5-dioxoimidazolidin-4-ylidene)methyl]propyl}-L-valinamide]
- Tubulin Polym. % inhibition at 0.3 uM [1]: 95%
- IC50 (KB85; 72 h): 9.9 nM
- IC50 (KBV1; Homo sapiens, KB-V1, 72 h): 230 nM
- IC50 (KB cells; Homo sapiens, KB, 72 h): 5.1 nM

SMILES: CN[C@H](C(=O)N[C@H](C(=O)N(C)[C@@H](/C=C(\C)C(=O)OCc1ccc(OCc2ccccc2)cc1)C(C)C)C(C)(C)C)C(C)(C)c1ccccc1 [Example 54, N,β,β-trimethyl-L-phenylalanyl-N^1-((1R,2E)-4-{[4-(benzyloxy)benzyl]oxy}-1-isopropyl-3-methyl-4-oxobut-2-enyl)-N^1,3-dimethyl-L-valinamide]
- Tubulin Polym. % inhibition at 0.3 uM [1]: 55%
- IC50 (KB85; 72 h): 846 nM
- inhibition at 3 µM (KBV1; Homo sapiens): 8%
- IC50 (KB cells; Homo sapiens, KB, 72 h): 136 nM

SMILES: CN[C@H](C(=O)N[C@H](C(=O)N(C)[C@H](/C=C(\C)C(=O)N1CCC[C@H]1C(=O)OC)C(C)C)C(C)(C)C)C(C)(C)c1cccc(C)c1 [Example 21, N,β,β,3-Tetramethyl-L-phenylalanyl-N^1-{(1S,2E)-4-[(2S)-2-(methoxycarbonyl)pyrrolidin-1-yl]-1-isopropyl-3-methyl-4-oxobut-2-enyl}-N^1,3-dimethyl-L-valinamide]
- Tubulin Polym. % inhibition at 0.3 uM [1]: 89%
- IC50 (KB85; 72 h): 6.2 nM
- IC50 (KBV1; Homo sapiens, KB-V1, 72 h): 275 nM
- IC50 (KB cells; Homo sapiens, KB, 72 h): 1.6 nM

SMILES: CN[C@@H](C(=O)N[C@H](C(=O)N(C)[C@H](/C=C(\C)C(=O)O)C(C)C)C(C)(C)C)C1(C)CCCc2ccccc21 (single isomer, unassigned) [Example 60]
- Tubulin Polym. % inhibition at 0.3 uM [1]: 94%
- IC50 (KB85; 72 h): 17 nM
- IC50 (KBV1; Homo sapiens, KB-V1, 72 h): 427 nM
- IC50 (KB cells; Homo sapiens, KB, 72 h): 9.1 nM

SMILES: CN[C@H](C(=O)N[C@H](C(=O)N(C)[C@H](/C=C(\C)C(=O)N1CCC[C@H]1C(=O)O)C(C)C)C(C)(C)C)C(C)(C)c1cccc(C)c1 [Example 22, N,β,β,3-Tetramethyl-L-phenylalanyl-N^1-{(1S,2E)-4-[(2S)-2-carboxypyrrolidin-1-yl]-1-isopropyl-3-methyl-4-oxobut-2-enyl}-N^1,3-dimethyl-L-valinamide]
- Tubulin Polym. % inhibition at 0.3 uM [1]: 95%
- IC50 (KB85; 72 h): 599 nM
- inhibition at 3 µM (KBV1; Homo sapiens): 12%
- IC50 (KB cells; Homo sapiens, KB, 72 h): 70 nM

SMILES: CN[C@H](C(=O)N[C@H](C(=O)N(C)[C@H](/C=C(\C)C(=O)N1CCC[C@H]1[C@H](OC)[C@@H](C)C(=O)N1C(=O)O[C@@H](c2ccccc2)[C@H]1C)C(C)C)C(C)(C)C)C(C)(C)C1CCCCC1 [Example 51, 3-cyclohexyl-N-methyl-L-valyl-N^1-[(1S,2E)-1-isopropyl-4-((2S)-2-{(1R,2R)-1-meyhoxy-2-methyl-3-[(4R,5S)-4-methyl-2-oxo-5-phenyl-1,3-oxazolidin-3-yl]-3-oxopropyl}pyrrolidin-1-yl)-3-methyl-4-oxobut-2-enyl]-N^1,3-dimethyl-L-valinamide]
- Tubulin Polym. % inhibition at 0.3 uM [1]: 82%
- IC50 (KB85): 61 nM
- IC50 (KBV1): 1770 nM
- IC50 (KB cells): 22 nM

SMILES: CN[C@H](C(=O)N[C@H](C(=O)N(C)[C@H](/C=C(\C)C(=O)N1CCN(C)CC1)C(C)C)C(C)(C)C)C(C)(C)c1cc(C)cc(C)c1 [Example 8, N,β,β,3,5-Pentamethyl-L-phenylalanyl-N^1-[(1S,2E)-1-isopropyl-3-methyl-4-(4-methylpiperazin-1-yl)-4-oxobut-2-enyl]-N^1,3-dimethyl-L-valinamide]
- Tubulin Polym. % inhibition at 0.3 uM [1]: 68%
- IC50 (KB85; 72 h): 56 nM
- IC50 (KBV1; Homo sapiens, KB-V1, 72 h): 1620 nM
- IC50 (KB cells; Homo sapiens, KB, 72 h): 35 nM

SMILES: CN[C@H](C(=O)N[C@H](C(=O)N(C)[C@H](/C=C(\C)C(=O)c1ncc[nH]1)C(C)C)C(C)(C)C)C(C)(C)c1ccccc1 [Example 88, (2S)-N-[(1S,2E)-4-(1H-imidazol-2-yl)-1-isopropyl-3-methyl-4-oxobut-2-enyl]- -trimethyl-2-{[(2S)-3-methyl-2-(methylamino)-3-phenylbutanoyl]amino}butanamide]
- Tubulin Polym. % inhibition at 0.3 uM [1]: 91%
- IC50 (KB85): 1360 nM
- KBV1 % inhibition @ 3000 nM (KBV1; 3000 nM): 0%
- IC50 (KB cells): 218 nM

SMILES: C/C(=C\[C@H](C(C)C)N(C)C(=O)[C@@H](NC(=O)[C@@H]1CCCN1C)C(C)(C)C)C(=O)O [Example 62, 1-methyl-L-prolyl-N^1-[(1S,2E)-3-carboxy-1-isopropylbut-2-enyl]-N^1,3-dimethyl-L-valinamide]
- Tubulin Polym. % inhibition at 0.3 uM [1]: 65(2) %
- inhibition at 3 µM (KB85; 3000 nM): 26%
- inhibition at 3 µM (KBV1; Homo sapiens): 10%
- IC50 (KB cells; Homo sapiens, KB, 72 h): 2950 nM

SMILES: CN[C@H](C(=O)N[C@H](C(=O)N(C)[C@H](/C=C(\C)C(=O)N1CCC[C@H]1C(=O)N1CCC[C@H]1C(=O)NCc1ccccc1)C(C)C)C(C)(C)C)C(C)(C)c1cc(C)cc(C)c1 [Example 11, 1-{(2E,4S)-2,5-Dimethyl-4-[methyl(N,β,β,3,5-pentamethyl-L-phenylalanyl-3-methyl-L-valyl)amino]hex-2-enoyl}-L-prolyl-N-benzyl-L-prolinamide]
- Tubulin Polym. % inhibition at 0.3 uM [1]: 41%
- IC50 (KB85; 72 h): 24 nM
- inhibition at 3 µM (KBV1; Homo sapiens): 8%
- IC50 (KB cells; Homo sapiens, KB, 72 h): 0.56 nM

SMILES: CN[C@H](C(=O)N[C@H](C(=O)N(C)[C@H](/C=C(\C)C(=O)N1CCC[C@@H]1C(=O)OC)C(C)C)C(C)(C)C)C(C)(C)c1ccccc1 [Example 41, N,β,β-trimethyl-L-phenylalanyl-N^1-{(1S,2E)-4-[(2R)-2-(methoxycarbonyl)pyrrolidin-1-yl]-1-isopropyl-3-methyl-4-oxobut-2-enyl}-N^1,3-dimethyl-L-valinamide]
- Tubulin Polym. % inhibition at 0.3 uM [1]: 96%
- IC50 (KB85; 72 h): 51 nM
- IC50 (KBV1; Homo sapiens, KB-V1, 72 h): 1100 nM
- IC50 (KB cells; Homo sapiens, KB, 72 h): 16 nM

SMILES: CN[C@H](C(=O)N[C@H](C(=O)N(C)[C@H](/C=C(\C)C(=O)O)C(C)C)C(C)(C)C)C12CC3CC(CC(C3)C1)C2 [Example 55, (2E,4S)-4-[{N-[(2S)-2-(1-adamantyl)-2-(methylamino)ethanoyl]-3-methyl-L-valyl}(methyl)amino]-2,5-dimethyl-2-hexenoic acid]
- Tubulin Polym. % inhibition at 0.3 uM [1]: 66%
- IC50 (KB85; 72 h): 646 nM
- inhibition at 3 µM (KBV1; Homo sapiens): 13%
- IC50 (KB cells; Homo sapiens, KB, 72 h): 603 nM

SMILES: CN[C@H](C(=O)N[C@H](C(=O)N(C)[C@H](/C=C(\C)C(=O)N1CCC[C@H]1C(=O)OC)C(C)C)C(C)(C)C)C(C)(C)c1cccc(Cl)c1 [Example 23, 3-Chloro-N,β,β-trimethyl-L-phenylalanyl-N^1-{(1S,2E)-4-[(2S)-2-(methoxycarbonyl)pyrrolidin-1-yl]-1-isopropyl-3-methyl-4-oxobut-2-enyl}-N^1,3-dimethyl-L-valinamide]
- Tubulin Polym. % inhibition at 0.3 uM [1]: 88%
- IC50 (KB85; 72 h): 6.2 nM
- IC50 (KBV1; Homo sapiens, KB-V1, 72 h): 362 nM
- IC50 (KB cells; Homo sapiens, KB, 72 h): 2.5 nM
